Source: the Kinase Knowledgebase extract (Sharma et al. 2016)

How the values were obtained:
Assay in all cases: Enzyme Assay
PIK3CA (human) = PIK3CA (human) (UniProt P42336)
PIK3CB (Human) = PIK3CB (Human) (UniProt P42338)
PIK3CD (Human) = PIK3CD (Human) (UniProt O00329)
PIK3CG (human) = PIK3CG (human) (UniProt P48736)
Chain of PIK3CG (human) (P48736 whole entry, looked up): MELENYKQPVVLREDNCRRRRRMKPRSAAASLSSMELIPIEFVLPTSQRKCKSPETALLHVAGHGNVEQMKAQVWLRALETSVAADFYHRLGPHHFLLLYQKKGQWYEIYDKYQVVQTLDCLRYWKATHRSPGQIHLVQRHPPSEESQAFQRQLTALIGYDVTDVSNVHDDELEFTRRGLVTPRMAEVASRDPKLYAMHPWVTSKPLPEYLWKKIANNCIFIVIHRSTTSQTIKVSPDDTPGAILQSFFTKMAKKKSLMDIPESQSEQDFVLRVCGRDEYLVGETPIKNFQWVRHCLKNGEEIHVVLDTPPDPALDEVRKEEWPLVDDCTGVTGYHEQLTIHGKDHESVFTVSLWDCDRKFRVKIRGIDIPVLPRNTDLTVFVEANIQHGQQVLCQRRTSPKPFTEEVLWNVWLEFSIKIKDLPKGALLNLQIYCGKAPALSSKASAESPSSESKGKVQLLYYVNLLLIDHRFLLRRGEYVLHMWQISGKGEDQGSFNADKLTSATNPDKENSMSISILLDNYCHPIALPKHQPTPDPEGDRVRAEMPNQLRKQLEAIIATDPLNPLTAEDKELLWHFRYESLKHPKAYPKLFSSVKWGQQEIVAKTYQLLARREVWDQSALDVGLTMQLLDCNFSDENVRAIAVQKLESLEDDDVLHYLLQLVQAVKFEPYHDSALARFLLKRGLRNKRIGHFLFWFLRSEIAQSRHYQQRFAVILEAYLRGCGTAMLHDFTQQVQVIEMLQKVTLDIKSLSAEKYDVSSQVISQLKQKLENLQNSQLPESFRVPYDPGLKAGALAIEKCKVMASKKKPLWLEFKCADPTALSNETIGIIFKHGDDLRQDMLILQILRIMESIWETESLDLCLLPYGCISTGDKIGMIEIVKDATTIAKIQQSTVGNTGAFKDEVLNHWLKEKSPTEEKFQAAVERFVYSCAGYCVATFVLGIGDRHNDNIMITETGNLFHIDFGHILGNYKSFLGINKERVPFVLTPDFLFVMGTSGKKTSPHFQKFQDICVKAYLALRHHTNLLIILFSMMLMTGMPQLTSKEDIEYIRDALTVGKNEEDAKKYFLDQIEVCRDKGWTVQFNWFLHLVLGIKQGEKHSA

Chain of PIK3CD (Human) (O00329 whole entry, looked up): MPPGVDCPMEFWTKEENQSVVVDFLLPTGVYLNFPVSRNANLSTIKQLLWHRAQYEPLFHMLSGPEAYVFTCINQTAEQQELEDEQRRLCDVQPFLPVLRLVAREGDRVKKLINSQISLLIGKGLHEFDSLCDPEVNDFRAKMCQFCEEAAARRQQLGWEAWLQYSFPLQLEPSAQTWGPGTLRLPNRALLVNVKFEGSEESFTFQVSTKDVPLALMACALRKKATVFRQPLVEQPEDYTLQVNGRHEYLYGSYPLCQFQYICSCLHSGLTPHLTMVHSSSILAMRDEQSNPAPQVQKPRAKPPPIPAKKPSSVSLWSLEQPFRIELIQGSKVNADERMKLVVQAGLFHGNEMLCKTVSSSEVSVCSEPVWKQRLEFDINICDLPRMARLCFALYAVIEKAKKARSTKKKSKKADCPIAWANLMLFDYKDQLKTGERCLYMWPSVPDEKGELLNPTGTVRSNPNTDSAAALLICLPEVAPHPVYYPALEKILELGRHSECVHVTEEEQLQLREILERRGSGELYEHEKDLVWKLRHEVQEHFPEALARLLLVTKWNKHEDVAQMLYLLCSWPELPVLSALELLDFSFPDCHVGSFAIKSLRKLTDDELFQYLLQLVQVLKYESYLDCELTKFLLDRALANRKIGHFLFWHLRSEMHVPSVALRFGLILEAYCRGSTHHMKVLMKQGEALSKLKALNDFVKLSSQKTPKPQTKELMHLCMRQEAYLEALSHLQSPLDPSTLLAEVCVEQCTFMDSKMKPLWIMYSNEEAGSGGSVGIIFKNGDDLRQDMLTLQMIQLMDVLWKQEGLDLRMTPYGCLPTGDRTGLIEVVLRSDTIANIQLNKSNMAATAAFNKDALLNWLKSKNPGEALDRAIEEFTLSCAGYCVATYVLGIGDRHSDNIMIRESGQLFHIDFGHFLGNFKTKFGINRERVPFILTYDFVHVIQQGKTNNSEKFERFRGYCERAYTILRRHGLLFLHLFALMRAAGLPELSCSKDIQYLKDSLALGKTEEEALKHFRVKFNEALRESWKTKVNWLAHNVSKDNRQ
Chain of PIK3CB (Human) (P42338 whole entry, looked up): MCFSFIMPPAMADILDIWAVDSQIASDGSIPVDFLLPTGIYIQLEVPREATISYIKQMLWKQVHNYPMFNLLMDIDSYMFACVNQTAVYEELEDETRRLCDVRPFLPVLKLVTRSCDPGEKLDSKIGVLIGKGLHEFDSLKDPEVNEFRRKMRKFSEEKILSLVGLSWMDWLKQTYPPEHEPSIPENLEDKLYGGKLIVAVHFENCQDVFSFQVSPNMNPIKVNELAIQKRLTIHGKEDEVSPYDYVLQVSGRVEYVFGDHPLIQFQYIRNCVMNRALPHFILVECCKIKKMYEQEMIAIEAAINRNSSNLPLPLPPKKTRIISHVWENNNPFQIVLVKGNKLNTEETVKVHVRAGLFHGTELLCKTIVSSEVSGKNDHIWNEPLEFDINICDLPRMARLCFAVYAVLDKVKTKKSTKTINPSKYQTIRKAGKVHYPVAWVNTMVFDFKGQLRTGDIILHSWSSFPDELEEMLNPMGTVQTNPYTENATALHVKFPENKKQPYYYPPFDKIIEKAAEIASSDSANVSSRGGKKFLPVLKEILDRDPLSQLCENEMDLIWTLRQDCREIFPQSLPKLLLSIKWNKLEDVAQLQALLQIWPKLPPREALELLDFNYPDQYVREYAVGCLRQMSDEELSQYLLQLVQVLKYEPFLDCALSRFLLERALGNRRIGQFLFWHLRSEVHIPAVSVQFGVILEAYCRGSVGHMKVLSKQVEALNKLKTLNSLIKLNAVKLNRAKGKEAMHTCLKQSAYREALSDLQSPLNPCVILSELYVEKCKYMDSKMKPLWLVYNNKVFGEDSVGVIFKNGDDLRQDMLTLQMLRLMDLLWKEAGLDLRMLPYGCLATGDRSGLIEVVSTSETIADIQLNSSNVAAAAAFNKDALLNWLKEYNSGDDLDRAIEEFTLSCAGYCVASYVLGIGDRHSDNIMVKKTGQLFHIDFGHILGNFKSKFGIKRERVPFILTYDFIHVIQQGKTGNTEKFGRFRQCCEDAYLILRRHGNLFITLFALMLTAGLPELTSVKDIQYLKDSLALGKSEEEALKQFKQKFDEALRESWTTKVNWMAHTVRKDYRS
Chain of PIK3CA (human) (P42336 whole entry, looked up): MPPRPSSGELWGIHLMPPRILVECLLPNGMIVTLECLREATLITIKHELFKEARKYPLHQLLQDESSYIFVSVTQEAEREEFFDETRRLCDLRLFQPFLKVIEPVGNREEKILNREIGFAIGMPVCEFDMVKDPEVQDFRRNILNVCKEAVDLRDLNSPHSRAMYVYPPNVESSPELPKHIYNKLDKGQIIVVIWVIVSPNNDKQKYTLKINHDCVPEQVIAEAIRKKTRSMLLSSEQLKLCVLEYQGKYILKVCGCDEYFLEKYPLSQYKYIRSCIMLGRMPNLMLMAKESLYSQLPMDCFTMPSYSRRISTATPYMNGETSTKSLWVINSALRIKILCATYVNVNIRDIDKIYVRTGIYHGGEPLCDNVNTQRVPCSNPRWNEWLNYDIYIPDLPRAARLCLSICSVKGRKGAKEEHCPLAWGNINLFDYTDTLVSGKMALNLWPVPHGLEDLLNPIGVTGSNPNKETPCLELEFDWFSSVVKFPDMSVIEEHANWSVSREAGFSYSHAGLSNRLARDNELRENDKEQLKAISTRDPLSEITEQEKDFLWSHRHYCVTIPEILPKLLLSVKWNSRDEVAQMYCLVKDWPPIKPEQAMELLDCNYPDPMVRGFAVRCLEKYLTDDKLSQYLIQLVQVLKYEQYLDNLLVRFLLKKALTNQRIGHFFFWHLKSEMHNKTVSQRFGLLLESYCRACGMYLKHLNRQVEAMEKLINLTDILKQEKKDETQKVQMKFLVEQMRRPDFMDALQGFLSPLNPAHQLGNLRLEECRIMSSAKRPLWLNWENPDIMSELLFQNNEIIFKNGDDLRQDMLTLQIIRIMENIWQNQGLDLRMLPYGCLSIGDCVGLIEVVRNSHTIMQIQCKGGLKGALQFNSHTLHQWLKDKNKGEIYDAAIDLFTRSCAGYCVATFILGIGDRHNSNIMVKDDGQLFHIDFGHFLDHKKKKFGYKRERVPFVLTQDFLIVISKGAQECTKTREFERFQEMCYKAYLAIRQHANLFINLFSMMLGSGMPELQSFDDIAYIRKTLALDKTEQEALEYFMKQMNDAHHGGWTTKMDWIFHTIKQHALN

SMILES	IC50 (PIK3CA (human))	IC50 (PIK3CB (Human))	IC50 (PIK3CD (Human))	IC50 (PIK3CG (human))
O=C1NC(=O)/C(=C/c2ccc(-c3ccc(F)cc3O)o2)S1	1.07 µM	> 20000 nM	> 20000 nM	
Cc1ccccc1Oc1cccc2c(=O)cc(N3CCOCC3)[nH]c12	61 µM	130 nM	630 nM	> 100 µM
CC(C)(C)NS(=O)(=O)c1cncc(-c2cc(F)c3nc(N)nn3c2)c1	> 10 µM	1100 nM	8200 nM	0.027 µM
Nc1ncc(-c2ccnc(Nc3ccncc3)n2)c(CC2CC2)n1	3.96 µM		1200 nM	3.04 µM
CN(CCO)S(=O)(=O)c1cncc(-c2ccc3nc(NC(=O)NCCc4noc(C(C)(C)C)n4)sc3c2)c1	1.68 µM	62 nM	166 nM	0.003 µM
C[C@@H]1COCCN1c1cc(=O)n2c(n1)N(Cc1cncc(Cl)c1)[C@H](C(F)(F)F)CC2		> 10000 nM	> 10000 nM	> 10 µM
C[C@H](Nc1ncnc2nc[nH]c12)c1nc2ccc(F)cc2c(=O)n1-c1ccccc1	5.44 µM		12 nM	1.39 µM
Fc1ccc2[nH]ccc2c1-c1nc(N2CCOCC2)c2sc(CN3CCN(CC4CC4)CC3)cc2n1	0.91 µM	2650 nM	5 nM	> 1000 µM
CC(C)(O)CNc1ncc(-c2ccnc(Nc3ccnc(Cl)c3)n2)c(CC2CC2)n1				2 µM
